{"source": "patent US20050112573A1", "about": "“Method of detecting toxic substance” (priority 2001, published 2005)", "system": "yeast genes (level of expressed mRNA)", "experiment": "DNA chip analysis of expressed mRNA of yeast genes after 2 h culture with a toxic chemical substance", "assay_type": "cell-based, Saccharomyces cerevisiae S288C", "method": "Yeast (Saccharomyces cerevtisiae S288C (α SUC2mal mel gap2 CUP1)) were cultured at 25° C. on YPD medium (yeast extract 1%, polypepton 2%, glucose 2%). One of toxic chemical substances was added to the cell at logarithmic growth phase, and the cell was further cultured for two hours. Cell was cultured without any chemical substance in the same condition, and was used as control. Concentrations of the chemical substances were defined to inhibit the growth of the yeast but not lead to death.\nAfter the completion of cultivation, the culture was centrifuged to collect the cells. To the cells, sodium acetate buffer (50 mM sodium acetate, 10 mM EDTA, 1% SDS) was added, and the mixture was shaken at 65° C. for five minutes, followed by returning to room temperature, and obtaining the supernatant, which procedure was repeated two times. To the supernatant, ½ amount of a solution of phenol/chloroform was added, and the mixture was centrifuged to give a supernatant, which was added with an equal amount of chloroform, and the mixture was centrifuged to give a supernatant. To the supernatant, an equal amount of isopropanol containing 0.3 M sodium acetate was added, and the mixture was allowed to stand at room temperature for 30 minutes, after which the mixture was centrifuged to give a sediment of the whole RNAs. Seventy % ethanol was added to the sediment, and the mixture was again centrifuged to give a sediment, which was then dried and dissolved in water. mRNA was isolated from the whole RNAs as followings. In view of the fact that a poly A chain is attached to the 3′ terminus of mRNA, a polynucleotide having a poly T structure which was immobilized on the surface of latex beads was used to trap the mRNA, and then the mRNA was washed and eluted with spine column (Oligotex-dT30<Super>mRNA Purification Kit, Takara). Reverse transcription of the mRNA was conducted with a reverse transcriptase (Super Script II Reverse Transcriptase; catalogue No. 18064-014, GibcoBRL) using fluorescence-labeled nucleotides to give cDNAs that were introduced with Cy3-dUTP or Cy5-dUTP during the reverse transcription.\nThe labeled cDNAs were dissolved in TE buffer (10 mM Tris-HCl/1 mM EDTA, pH8.0), and the solution was dropped on the DNA chip containing the whole genes of yeast (DNA Chip Research Inc. Japan) so that the cDNAs were hybridized on the DNA chip at 65° C. for over 12 hours. The fluoresces intensity of the DNA chip was read with a scanner, and the ratio relative to the fluorescence intensity resulting from the absence of chemical substance was estimated as the following, which is shown in Tables 1 to 9: [formula]\nIn the Tables, “Intensity” indicated in the rightmost column is a value of the level of expressed mRNA of each gene in control cells as divided by the average level of the expressions of the whole genes."}
{"smiles": "S=C([S-])NCCNC(=S)[S-].[Zn+2]", "note": "[(11), zinc N,N′-ethylenebis(dithiocarbamate)]", "values": [{"measurement": "The level of expressed mRNA in the presence of chemical substance/absence: YML029W", "setting": "gene YML029W", "value": 1.2}, {"measurement": "The level of expressed mRNA in the presence of chemical substance/absence: YML041C", "setting": "gene YML041C", "value": 0.9}, {"measurement": "The level of expressed mRNA in the presence of chemical substance/absence: YML079W", "setting": "gene YML079W", "value": 1.2}, {"measurement": "level of expressed mRNA in the presence of chemical substance/in its absence", "setting": "gene YML110C", "value": 1.7}, {"measurement": "The level of expressed mRNA in the presence of chemical substance/absence: YML118W", "setting": "gene YML118W", "value": 1.3}, {"measurement": "The level of expressed mRNA in the presence of chemical substance/absence: YMR068W", "setting": "gene YMR068W", "value": 1.1}, {"measurement": "The level of expressed mRNA in the presence of chemical substance/absence: YMR071C", "setting": "gene YMR071C", "value": 1.2}, {"measurement": "level of expressed mRNA in the presence of chemical substance/in its absence", "setting": "gene YMR105C", "value": 3.0}, {"measurement": "The level of expressed mRNA in the presence of chemical substance/absence: YMR114C", "setting": "gene YMR114C", "value": 1.0}, {"measurement": "The level of expressed mRNA in the presence of chemical substance/absence: YMR115W", "setting": "gene YMR115W", "value": 1.1}, {"measurement": "The level of expressed mRNA in the presence of chemical substance/absence: YMR160W", "setting": "gene YMR160W", "value": 1.0}, {"measurement": "level of expressed mRNA in the presence of chemical substance/in its absence", "setting": "gene YMR189W", "value": 8.2}, {"measurement": "The level of expressed mRNA in the presence of chemical substance/absence: YMR258C", "setting": "gene YMR258C", "value": 1.4}, {"measurement": "level of expressed mRNA in the presence of chemical substance/in its absence", "setting": "gene YMR271C", "value": 1.7}, {"measurement": "level of expressed mRNA in the presence of chemical substance/in its absence", "setting": "gene YMR272C", "value": 0.8}, {"measurement": "level of expressed mRNA in the presence of chemical substance/in its absence", "setting": "gene YMR296C", "value": 0.8}, {"measurement": "level of expressed mRNA in the presence of chemical substance/in its absence", "setting": "gene YNL012W", "value": 1.6}, {"measurement": "The level of expressed mRNA in the presence of chemical substance/absence: YNL026W", "setting": "gene YNL026W", "value": 1.1}, {"measurement": "level of expressed mRNA in the presence of chemical substance/in its absence", "setting": "gene YNL037C", "value": 1.4}, {"measurement": "level of expressed mRNA in the presence of chemical substance/in its absence", "setting": "gene YNL045W", "value": 2.1}, {"measurement": "The level of expressed mRNA in the presence of chemical substance/absence: YNL058C", "setting": "gene YNL058C", "value": 1.0}, {"measurement": "The level of expressed mRNA in the presence of chemical substance/absence: YNL063W", "setting": "gene YNL063W", "value": 1.1}, {"measurement": "level of expressed mRNA in the presence of chemical substance/in its absence", "setting": "gene YNL104C", "value": 2.1}, {"measurement": "level of expressed mRNA in the presence of chemical substance/in its absence", "setting": "gene YNL106C", "value": 0.9}, {"measurement": "level of expressed mRNA in the presence of chemical substance/in its absence", "setting": "gene YNL130C", "value": 1.5}, {"measurement": "level of expressed mRNA in the presence of chemical substance/in its absence", "setting": "gene YNL169C", "value": 0.8}, {"measurement": "The level of expressed mRNA in the presence of chemical substance/absence: YNL176C", "setting": "gene YNL176C", "value": 1.2}, {"measurement": "The level of expressed mRNA in the presence of chemical substance/absence: YNL181W", "setting": "gene YNL181W", "value": 1.2}, {"measurement": "The level of expressed mRNA in the presence of chemical substance/absence: YNL191W", "setting": "gene YNL191W", "value": 1.0}, {"measurement": "The level of expressed mRNA in the presence of chemical substance/absence: YNL194C", "setting": "gene YNL194C", "value": 17.1}, {"measurement": "The level of expressed mRNA in the presence of chemical substance/absence: YNL200C", "setting": "gene YNL200C", "value": 3.1}, {"measurement": "The level of expressed mRNA in the presence of chemical substance/absence: YNL212W", "setting": "gene YNL212W", "value": 1.3}, {"measurement": "level of expressed mRNA in the presence of chemical substance/in its absence", "setting": "gene YNL231C", "value": 1.3}, {"measurement": "The level of expressed mRNA in the presence of chemical substance/absence: YNL253W", "setting": "gene YNL253W", "value": 0.8}, {"measurement": "The level of expressed mRNA in the presence of chemical substance/absence: YNL265C", "setting": "gene YNL265C", "value": 0.9}, {"measurement": "The level of expressed mRNA in the presence of chemical substance/absence: YNL276C", "setting": "gene YNL276C", "value": 0.7}, {"measurement": "level of expressed mRNA in the presence of chemical substance/in its absence", "setting": "gene YNL322C", "value": 0.6}, {"measurement": "level of expressed mRNA in the presence of chemical substance/in its absence", "setting": "gene YNR002C", "value": 1.6}, {"measurement": "level of expressed mRNA in the presence of chemical substance/in its absence", "setting": "gene YNR019W", "value": 0.7}, {"measurement": "level of expressed mRNA in the presence of chemical substance/in its absence", "setting": "gene YNR033W", "value": 0.4}, {"measurement": "The level of expressed mRNA in the presence of chemical substance/absence: YNR051C", "setting": "gene YNR051C", "value": 1.5}, {"measurement": "level of expressed mRNA in the presence of chemical substance/in its absence", "setting": "gene YNR059W", "value": 1.0}, {"measurement": "The level of expressed mRNA in the presence of chemical substance/absence: YOL026C", "setting": "gene YOL026C", "value": 1.2}, {"measurement": "The level of expressed mRNA in the presence of chemical substance/absence: YOL030W", "setting": "gene YOL030W", "value": 1.3}, {"measurement": "level of expressed mRNA in the presence of chemical substance/in its absence", "setting": "gene YOL058W", "value": 2.3}, {"measurement": "level of expressed mRNA in the presence of chemical substance/in its absence", "setting": "gene YOL126C", "value": 1.8}, {"measurement": "level of expressed mRNA in the presence of chemical substance/in its absence", "setting": "gene YOL143C", "value": 2.0}, {"measurement": "level of expressed mRNA in the presence of chemical substance/in its absence", "setting": "gene YOL153C", "value": 2.4}, {"measurement": "level of expressed mRNA in the presence of chemical substance/in its absence", "setting": "gene YOL157C", "value": 1.2}, {"measurement": "The level of expressed mRNA in the presence of chemical substance/absence: YOR022C", "setting": "gene YOR022C", "value": 1.7}, {"measurement": "The level of expressed mRNA in the presence of chemical substance/absence: YOR087W", "setting": "gene YOR087W", "value": 1.3}, {"measurement": "The level of expressed mRNA in the presence of chemical substance/absence: YOR088W", "setting": "gene YOR088W", "value": 0.8}, {"measurement": "level of expressed mRNA in the presence of chemical substance/in its absence", "setting": "gene YOR099W", "value": 1.2}, {"measurement": "level of expressed mRNA in the presence of chemical substance/in its absence", "setting": "gene YOR130C", "value": 0.6}, {"measurement": "level of expressed mRNA in the presence of chemical substance/in its absence", "setting": "gene YOR136W", "value": 1.4}, {"measurement": "The level of expressed mRNA in the presence of chemical substance/absence: YOR138C", "setting": "gene YOR138C", "value": 0.7}, {"measurement": "The level of expressed mRNA in the presence of chemical substance/absence: YOR155C", "setting": "gene YOR155C", "value": 1.6}]}
